The results in this text go back to US10124033B2, “Peptides and methods of use” (BAXALTA INCORPORATED, priority 2014, dated 2018).

The target in test [1] is T1, Protein S/APC cofactor activity (Homo sapiens, UniProt P07225).
T1 construct: host or cells: plasma
T1 sequence (P07225 41-676 limits assumed): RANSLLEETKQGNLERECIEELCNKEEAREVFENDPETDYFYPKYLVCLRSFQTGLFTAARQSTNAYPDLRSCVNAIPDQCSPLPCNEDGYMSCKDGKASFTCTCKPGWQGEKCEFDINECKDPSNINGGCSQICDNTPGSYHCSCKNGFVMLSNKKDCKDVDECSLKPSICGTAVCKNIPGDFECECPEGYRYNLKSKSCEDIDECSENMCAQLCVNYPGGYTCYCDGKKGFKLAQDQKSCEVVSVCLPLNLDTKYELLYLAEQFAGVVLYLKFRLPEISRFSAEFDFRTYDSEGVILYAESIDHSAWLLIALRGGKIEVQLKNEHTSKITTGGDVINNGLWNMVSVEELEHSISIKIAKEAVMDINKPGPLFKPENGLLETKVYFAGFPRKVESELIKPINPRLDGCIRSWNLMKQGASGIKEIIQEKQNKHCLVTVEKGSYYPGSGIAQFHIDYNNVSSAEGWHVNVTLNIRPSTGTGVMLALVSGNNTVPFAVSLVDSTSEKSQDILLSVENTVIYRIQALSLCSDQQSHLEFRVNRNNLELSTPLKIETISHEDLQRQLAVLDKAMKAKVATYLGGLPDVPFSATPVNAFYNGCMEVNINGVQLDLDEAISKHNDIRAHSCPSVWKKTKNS
As to the kind of experiment: CAT assay: Protein S/APC-dependent thrombin generation in FVIII-inhibited plasma. It counts as biochemical. Here is the method:
Peptides also were tested for improvement of Protein S/APC-dependent thrombin generation in hemophilic plasma using a CAT assay. Protein S enhances the anticoagulation of APC in plasma. The CAT assay quantifies the effect of Protein S on APC-mediated thrombin generation initiated via the extrinsic coagulation pathway (Nicolaes, Blood Coagul. Fibrinolysis, 8:28 (1997)). APC (35 nM) and Protein S (25 nM) was added to Protein 5-depleted plasma, and plasma samples were incubated with high titer heat inactivated anti-human FVIII plasma raised in goat (4490 BU/ml; Baxter BioScience, Vienna, Austria; 50 BU/ml final plasma concentration). Thrombin formation in plasma was followed by calibrated automated thrombography (CAT) in a Fluoroskan Ascent® reader (Thermo Labsystems, Helsinki, Finland) and quantified via the thrombin peak-height. Thrombin generation was determined at high tissue factor (TF) concentration in the absence and in the presence of APC at a concentration that reduces the peak height to ˜20%. The inhibitory effect of peptides described herein on the APC cofactor activity of Protein S (PS) in plasma was measured in FVIII-inhibited pooled normal plasma supplemented with APC. Complete (100%) Protein S/APC inhibition is the height of the thrombin peak without addition of APC. Lack of (0%) PS/APC inhibition correlates to the thrombin peak-height value with a certain amount of APC. Peptides were ranked by their normalized values in comparison to the mean of wild-type controls including SD at two defined peptide concentrations (EC50 and EC90).
Exemplary conditions for the CAT assay are as follows. Protein S-depleted plasma was supplemented with 35 nM APC and […]. Stock APC was diluted with 10 pM TF and 15 μM PL. Lyophilized peptides were dissolved in 100% DMSO to a 5 mM stock concentration and further diluted with HNABSA5-buffer+0.1% Tween80. […] In a 96 well Immulon 2HB (transparent), U-bottom (ThermoElectron) plate was mixed 80 μl plasma (+CTI+Z994-5), 10 μl peptide dilution, and 10 μl APC-TF-PL-MIX or Calibrator. Thrombin generation was initiated by dispensing 20 μL of FluCa reagent containing fluorogenic substrate and HEPES-buffered CaCl2 (100 mM) into each well. Fluorescence intensity was recorded at 37° C. using the Fluoroskan Ascent® reader (filters 390 nm excitation and 460 nm emission). The parameters of the resulting thrombin generation curves were calculated using the Thrombinoscope™ software (Thrombinoscope) and thrombin calibrator to correct for inner filter and substrate consumption effects (Hemker, Pathophysiol Haemost Thromb, 33: 415 (2003)).

The next test deals with T2, C4BP/PS complex (Homo sapiens, UniProt P07225).
T2 sequence (P07225 41-676 limits assumed): T1 sequence (P07225 41-676 limits assumed)
As to the kind of experiment: LANCE IC50 assay on preformed C4BP/PS complex. It counts as binding. On the procedure:
To investigate the effect of the peptides described herein on PS/C4BP complexes, a LANCE IC50 assay was established using methods similar to those described above. JBS2572 or JBS3216 was added to a preformed C4BP/PS complex. Changes in the complex concentration were followed by recording the TR-FRET signal. For both peptides, a time- and concentration-dependent dissociation of the C4BP/PS complex was observed. The IC50 of JBS3216 was 0.3 nM, and the IC50 of JBS2572 was 2 nM. The time-dependency of the complex reduction was similar for both peptides. After two hours of incubation in the presence of 100 nM JBS2572 or JBS3216, the C4BP/PS complex was reduced to 60% and 50%, respectively. In addition, binding of biotinylated JBS2572 to Protein S was inhibited by C4BP in the LANCE IC50 assay. Pull-down experiments where JBS2697 was coupled to streptavidin sepharose and incubated for one hour at room temperature with (a) Protein S (1.6 pmol) (b) C4BP (8.5 pmol) and (c) Protein S (1.6 pmol)+C4BP (8.5 pmol) supported the results from the modified LANCE IC50 assay.

Residues, ends and D or L forms follow the SMILES beside them.

For `CC(=O)N[C@H](C(=O)NCC(=O)N[C@@H](CC(C)C)C(=O)N[C@H](C(=O)N[C@@H](CO)C(=O)N[C@@H](C)C(=O)NCC(=O)N[C@@H](Cc1c[nH]c2ccccc12)C(=O)N[C@@H](Cc1ccc(O)cc1)C(=O)N[C@@H](CC(=O)O)C(=O)N[C@@H](Cc1ccc(O)cc1)C(=O)N[C@@H](CC(N)=O)C(=O)N[C@@H](Cc1ccccc1)C(=O)N[C@@H](CC(=O)O)C(=O)N[C@@H](Cc1c[nH]cn1)C(=O)N[C@@H](Cc1ccc(O)cc1)C(=O)N[C@@H](CCCNC(=N)N)C(=O)N[C@@H](CCC(=O)O)C(=O)N[C@@H](Cc1ccccc1)C(=O)N[C@H](C(N)=O)[C@@H](C)O)C(C)C)[C@@H](C)O` [JBS2572] (Ac-TGLVSAGWYDYNFDHYREFT-NH2), the “increase of activity in the CAT-assay compared to JBS2512” value in test [1] (His to Leu substitution at position 3) amounted to 1.6 fold. The “PS/APC-dependent thrombin generation in hemophilic plasma” value in test [1] (hemophilic plasma) is given as “improved”. Besides, the IC50 on C4BP/PS complex (peptide added to preformed C4BP/PS complex, TR-FRET, read-out: IC50 of dissociation of preformed C4BP/PS complex) came to 2 nM. Moreover, at C4BP/PS complex (two hours of incubation, 100 nM peptide), the “C4BP/PS complex reduced to” value was determined as 60%.
